From patent publication US20230085307A1, “PYRIDAZINONE COMPOUND AND HERBICIDE” (NISSAN CHEMICAL CORPORATION, priority 2019, published 2023)

Columns and labels:
blackgrass [1] = test: Test Example 4: herbicidal effect by soil treatment (Table 19, symbol J); format: in vivo, blackgrass (Alopecurus myosuroides); settings: amount of applied herbicide 320 g/ha
Procedure, shortened: (§1)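 Scoring uses the grading scale of an earlier test, three weeks post-application. Treatment consists of spraying a diluted emulsion formulation across the surface of sterilized diluvial soil in which seeds are buried near 1.5 cm deep; boxes are kept in a greenhouse between 25° C. and 30° C.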

barnyard grass [2] = test: Test Example 3: herbicidal effect by foliage application, Wagner pot (Table 18, symbol H); format: in vivo, barnyard grass (Echinochloa crus-galli); settings: 320 g/ha
Procedure, shortened: (§2)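 Plants were sown in alluvial soil held under 0.1–0.5 cm standing water and grown 14 days in a greenhouse at 25–30 °C. An emulsifiable formulation, water-diluted to the set dose, was then sprayed onto the foliage, and effects were scored three weeks later using previously defined criteria.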

persian speedwell [3] = test: Test Example 4: herbicidal effect by soil treatment (Table 19, symbol R); format: in vivo, Persian speedwell (Veronica persica); settings: amount of applied herbicide 320 g/ha
Procedure, shortened: as §1

redroot pigweed [4] = test: Test Example 5: herbicidal effect by foliage application, plastic box (Table 20, symbol N); format: in vivo, redroot pigweed (Amaranthus retroflexus); settings: 320 g/ha, foliage application after 14-day growth, evaluated three weeks after application
Procedure, shortened: (§3)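 Post-emergence foliar test in sterilized diluvial soil. Compound applied as water-diluted emulsion at a predetermined rate to 14-day-old plants; evaluation at three weeks.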

velvetleaf [5] = test: Test Example 4: herbicidal effect by soil treatment (Table 19, symbol M); format: in vivo, velvetleaf (Abutilon theophrasti); settings: amount of applied herbicide 320 g/ha
Procedure, shortened: as §1

barnyard grass [6] = test: Test Example 4: herbicidal effect by soil treatment (Table 19, symbol H); format: in vivo, barnyard grass (Echinochloa crus-galli); settings: amount of applied herbicide 320 g/ha
Procedure, shortened: as §1

windgrass [7] = test: Test Example 4: herbicidal effect by soil treatment (Table 19, symbol L); format: in vivo, windgrass (Apera spica-venti); settings: amount of applied herbicide 320 g/ha
Procedure, shortened: as §1

lambsquarters [8] = test: Test Example 4: herbicidal effect by soil treatment (Table 19, symbol O); format: in vivo, lambsquarters (Chenopodium album); settings: amount of applied herbicide 320 g/ha
Procedure, shortened: as §1

redroot pigweed [9] = test: Test Example 4: herbicidal effect by soil treatment (Table 19, symbol N); format: in vivo, redroot pigweed (Amaranthus retroflexus); settings: amount of applied herbicide 320 g/ha
Procedure, shortened: as §1

rice flat sedge = test: Test Example 3: herbicidal effect by foliage application, Wagner pot (Table 18, symbol E); format: in vivo, rice flat sedge (Cyperus iria); settings: 320 g/ha
Procedure, shortened: as §2

green foxtail [10] = test: Test Example 4: herbicidal effect by soil treatment (Table 19, symbol G); format: in vivo, green foxtail (Setaria viridis); settings: amount of applied herbicide 320 g/ha
Procedure, shortened: as §1

persian speedwell [11] = test: Test Example 5: herbicidal effect by foliage application, plastic box (Table 20, symbol R); format: in vivo, Persian speedwell (Veronica persica); settings: 320 g/ha, foliage application after 14-day growth, evaluated three weeks after application
Procedure, shortened: as §3

southern crabgrass [12] = test: Test Example 5: herbicidal effect by foliage application, plastic box (Table 20, symbol F); format: in vivo, southern crabgrass (Digitaria ciliaris); settings: 320 g/ha, foliage application after 14-day growth, evaluated three weeks after application
Procedure, shortened: as §3

velvetleaf [13] = test: Test Example 5: herbicidal effect by foliage application, plastic box (Table 20, symbol M); format: in vivo, velvetleaf (Abutilon theophrasti); settings: 320 g/ha, foliage application after 14-day growth, evaluated three weeks after application
Procedure, shortened: as §3

wild oat [14] = test: Test Example 4: herbicidal effect by soil treatment (Table 19, symbol I); format: in vivo, wild oat (Avena fatua); settings: amount of applied herbicide 320 g/ha
Procedure, shortened: as §1

windgrass [15] = test: Test Example 5: herbicidal effect by foliage application, plastic box (Table 20, symbol L); format: in vivo, windgrass (Apera spica-venti); settings: 320 g/ha, foliage application after 14-day growth, evaluated three weeks after application
Procedure, shortened: as §3

blackgrass [16] = test: Test Example 5: herbicidal effect by foliage application, plastic box (Table 20, symbol J); format: in vivo, blackgrass (Alopecurus myosuroides); settings: 320 g/ha, foliage application after 14-day growth, evaluated three weeks after application
Procedure, shortened: as §3

lambsquarters [17] = test: Test Example 5: herbicidal effect by foliage application, plastic box (Table 20, symbol O); format: in vivo, lambsquarters (Chenopodium album); settings: 320 g/ha, foliage application after 14-day growth, evaluated three weeks after application
Procedure, shortened: as §3

Italian ryegrass [18] = test: Test Example 4: herbicidal effect by soil treatment (Table 19, symbol K); format: in vivo, Italian ryegrass (Lolium multiflorum); settings: amount of applied herbicide 320 g/ha
Procedure, shortened: as §1

chickweed [19] = test: Test Example 5: herbicidal effect by foliage application, plastic box (Table 20, symbol P); format: in vivo, common chickweed (Stellaria media); settings: 320 g/ha, foliage application after 14-day growth, evaluated three weeks after application
Procedure, shortened: as §3

Italian ryegrass [20] = test: Test Example 5: herbicidal effect by foliage application, plastic box (Table 20, symbol K); format: in vivo, Italian ryegrass (Lolium multiflorum); settings: 320 g/ha, foliage application after 14-day growth, evaluated three weeks after application
Procedure, shortened: as §3

barnyard grass [21] = test: Test Example 5: herbicidal effect by foliage application, plastic box (Table 20, symbol H); format: in vivo, barnyard grass (Echinochloa crus-galli); settings: 320 g/ha, foliage application after 14-day growth, evaluated three weeks after application
Procedure, shortened: as §3

wild oat [22] = test: Test Example 5: herbicidal effect by foliage application, plastic box (Table 20, symbol I); format: in vivo, wild oat (Avena fatua); settings: 320 g/ha, foliage application after 14-day growth, evaluated three weeks after application
Procedure, shortened: as §3

chickweed [23] = test: Test Example 4: herbicidal effect by soil treatment (Table 19, symbol P); format: in vivo, common chickweed (Stellaria media); settings: amount of applied herbicide 320 g/ha
Procedure, shortened: as §1

green foxtail [24] = test: Test Example 5: herbicidal effect by foliage application, plastic box (Table 20, symbol G); format: in vivo, green foxtail (Setaria viridis); settings: 320 g/ha, foliage application after 14-day growth, evaluated three weeks after application
Procedure, shortened: as §3

southern crabgrass [25] = test: Test Example 4: herbicidal effect by soil treatment (Table 19, symbol F); format: in vivo, southern crabgrass (Digitaria ciliaris); settings: amount of applied herbicide 320 g/ha
Procedure, shortened: as §1

Chinese sprangletop = test: Test Example 3: herbicidal effect by foliage application, Wagner pot (Table 18, symbol D); format: in vivo, chinese sprangletop (Leptochloa chinensis); settings: 320 g/ha
Procedure, shortened: as §2

| Compound | Herbicidal effect by soil treatment, J: blackgrass (blackgrass [1]) | herbicidal effect on barnyard grass (H) (barnyard grass [2]) | Herbicidal effect by soil treatment, R: persian speedwell (persian speedwell [3]) | herbicidal effect on N: redroot pigweed (evaluation grade 0-5) (redroot pigweed [4]) | Herbicidal effect by soil treatment, M: velvetleaf (velvetleaf [5]) | Herbicidal effect by soil treatment, H: barnyard grass (barnyard grass [6]) | Herbicidal effect by soil treatment, L: windgrass (windgrass [7]) | Herbicidal effect by soil treatment, O: lambsquarters (lambsquarters [8]) | Herbicidal effect by soil treatment, N: redroot pigweed (redroot pigweed [9]) | herbicidal effect on rice flat sedge (E) (rice flat sedge) | Herbicidal effect by soil treatment, G: green foxtail (green foxtail [10]) | herbicidal effect on R: persian speedwell (evaluation grade 0-5) (persian speedwell [11]) | herbicidal effect on F: southern crabgrass (evaluation grade 0-5) (southern crabgrass [12]) | herbicidal effect on M: velvetleaf (evaluation grade 0-5) (velvetleaf [13]) | Herbicidal effect by soil treatment, I: wild oat (wild oat [14]) | herbicidal effect on L: windgrass (evaluation grade 0-5) (windgrass [15]) | herbicidal effect on J: blackgrass (evaluation grade 0-5) (blackgrass [16]) | herbicidal effect on O: lambsquarters (evaluation grade 0-5) (lambsquarters [17]) | Herbicidal effect by soil treatment, K: Italian ryegrass (Italian ryegrass [18]) | herbicidal effect on P: chickweed (evaluation grade 0-5) (chickweed [19]) | other results |
| --- | --- | --- | --- | --- | --- | --- | --- | --- | --- | --- | --- | --- | --- | --- | --- | --- | --- | --- | --- | --- | --- |
| COc1ccccc1-c1sc2c(Cl)cccc2c1-c1c(O)c(C)nn(C)c1=O [4-021] | 0 (Herbicidal rate of 5% or less (almost no effect)) | 4 (Herbicidal rate of 70% or more and less than 90%) | 3 (Herbicidal rate of 40% or more and less than 70%) | 1 (Herbicidal rate of 5% or more and less than 20%) | 0 (Herbicidal rate of 5% or less (almost no effect)) | 0 (Herbicidal rate of 5% or less (almost no effect)) | 0 (Herbicidal rate of 5% or less (almost no effect)) | 1 (Herbicidal rate of 5% or more and less than 20%) | 2 (Herbicidal rate of 20% or more and less than 40%) | 5 (Herbicidal rate of 90% or more (almost completely withered)) | 0 (Herbicidal rate of 5% or less (almost no effect)) | 4 (Herbicidal rate of 70% or more and less than 90%) | 1 (Herbicidal rate of 5% or more and less than 20%) | 2 (Herbicidal rate of 20% or more and less than 40%) | 0 (Herbicidal rate of 5% or less (almost no effect)) | 5 (Herbicidal rate of 90% or more (almost completely withered)) | 0 (Herbicidal rate of 5% or less (almost no effect)) | 2 (Herbicidal rate of 20% or more and less than 40%) | 0 (Herbicidal rate of 5% or less (almost no effect)) | 5 (Herbicidal rate of 90% or more (almost completely withered)) | herbicidal effect on K: Italian ryegrass (evaluation grade 0-5) (Italian ryegrass [20]): 5 (Herbicidal rate of 90% or more (almost completely withered)); herbicidal effect on H: barnyard grass (evaluation grade 0-5) (barnyard grass [21]): 3 (Herbicidal rate of 40% or more and less than 70%); herbicidal effect on I: wild oat (evaluation grade 0-5) (wild oat [22]): 0 (Herbicidal rate of 5% or less (almost no effect)); Herbicidal effect by soil treatment, P: chickweed (chickweed [23]): 4 (Herbicidal rate of 70% or more and less than 90%); herbicidal effect on G: green foxtail (evaluation grade 0-5) (green foxtail [24]): 4 (Herbicidal rate of 70% or more and less than 90%); Herbicidal effect by soil treatment, F: southern crabgrass (southern crabgrass [25]): 0 (Herbicidal rate of 5% or less (almost no effect)); herbicidal effect on Chinese sprangletop (D) (Chinese sprangletop): 4 (Herbicidal rate of 70% or more and less than 90%) |
| CCCOc1ccc(-c2sc3c(Cl)cccc3c2-c2c(O)c(C)nn(C)c2=O)cc1 [4-027] | 0 (Herbicidal rate of 5% or less (almost no effect)) | 5 (Herbicidal rate of 90% or more (almost completely withered)) | 1 (Herbicidal rate of 5% or more and less than 20%) | 5 (Herbicidal rate of 90% or more (almost completely withered)) | 0 (Herbicidal rate of 5% or less (almost no effect)) | 0 (Herbicidal rate of 5% or less (almost no effect)) | 0 (Herbicidal rate of 5% or less (almost no effect)) | 2 (Herbicidal rate of 20% or more and less than 40%) | 4 (Herbicidal rate of 70% or more and less than 90%) | 0 (Herbicidal rate of 5% or less (almost no effect)) | 0 (Herbicidal rate of 5% or less (almost no effect)) | 5 (Herbicidal rate of 90% or more (almost completely withered)) | 0 (Herbicidal rate of 5% or less (almost no effect)) | 4 (Herbicidal rate of 70% or more and less than 90%) | 0 (Herbicidal rate of 5% or less (almost no effect)) | 3 (Herbicidal rate of 40% or more and less than 70%) | 3 (Herbicidal rate of 40% or more and less than 70%) | 5 (Herbicidal rate of 90% or more (almost completely withered)) | 0 (Herbicidal rate of 5% or less (almost no effect)) | 5 (Herbicidal rate of 90% or more (almost completely withered)) | herbicidal effect on K: Italian ryegrass (evaluation grade 0-5) (Italian ryegrass [20]): 1 (Herbicidal rate of 5% or more and less than 20%); herbicidal effect on H: barnyard grass (evaluation grade 0-5) (barnyard grass [21]): 4 (Herbicidal rate of 70% or more and less than 90%); herbicidal effect on I: wild oat (evaluation grade 0-5) (wild oat [22]): 0 (Herbicidal rate of 5% or less (almost no effect)); Herbicidal effect by soil treatment, P: chickweed (chickweed [23]): 5 (Herbicidal rate of 90% or more (almost completely withered)); herbicidal effect on G: green foxtail (evaluation grade 0-5) (green foxtail [24]): 0 (Herbicidal rate of 5% or less (almost no effect)); Herbicidal effect by soil treatment, F: southern crabgrass (southern crabgrass [25]): 0 (Herbicidal rate of 5% or less (almost no effect)); herbicidal effect on Chinese sprangletop (D) (Chinese sprangletop): 0 (Herbicidal rate of 5% or less (almost no effect)) |
